“Also recorded” adds a separate entry of the source.
Tests used:
BC2L-C-Nt = molecular target: BC2L-C-Nt; design: method as in PMID 36174276; settings: SPR, BC2L-C-Nt immobilized on CM5 chip; said not to correlate with ITC; read-out: apparent Kd; cited from earlier work
[1] = design: method as in PMID 36174276; settings: cited from earlier work
Water solubility = type: physicochemical; settings: fully soluble at least up to
[2] = molecular target: the molecule itself; assay: crystal structure; hexagonal crystal form (P6_3), one protomer in the asymmetric unit, trimer by the 3-fold crystallographic symmetry; cocrystals with H-type 1 oligosaccharide soaked with 3 mM compound 3 in 2.47 M sodium malonate pH 7.0 for 48 h at 19 °C

C[C@@H]1O[C@H](NC(=O)c2ccc(-c3cccc(N)c3)o2)[C@@H](O)[C@H](O)[C@@H]1O [compound 2]
Kd (BC2L-C-Nt): 2400 µM
water solubility (in words) [1]: very low water solubility; also recorded: water-insoluble

C[C@@H]1O[C@H](NC(=O)c2ccc(-c3cccc(CN)c3)o2)[C@@H](O)[C@H](O)[C@@H]1O [compound 3]
solubility (Water solubility): ≥ 2000 µM

C[C@@H]1O[C@H](NC(=O)c2ccco2)[C@@H](O)[C@H](O)[C@@H]1O [compound 17, Furan-2-carboxamido-β-L-fucopyranose]
solubility (Water solubility): ≥ 2000 µM

NCc1cccc(-c2ccc(C(=O)NC3OC(CO)C(O)C(O)C3O)o2)c1 (stereo not drawn) [compound 4]
solubility (Water solubility): ≥ 2000 µM

B1: N-terminal domain of the lectin BC2L-C from Burkholderia cenocepacia (domain or fragment)
chain: MPLLSASIVSAPVVTSETYVDIPGLYLDVAKAGIRDGKLQVILNVPTPYATGNNFPGIYFAIATNQGVVADGCFTYSSKVPESTGRMPFTLVATIDVGSGVTFVKGQWKSVRGSAMHIDSYASLSAIWGTAA
notes: also called BC2L-C-Nt; BC2L-C N-terminal domain; not shown: expression tag, N-terminal, cleaved
stoichiometry N [2]: 3
